Measurements as given in patent publication US4623639A (Hoffmann-La Roche Inc., priority 1983, dated 1986).
Where a name gives a salt, the structure may show the parent alone.

Experiments:
[1] = biological target: T1, Human granulocyte elastase (Homo sapiens, UniProt P08246); test: Assay of the inhibition of human granulocyte elastase (succinyl (Ala)3-p-nitroanilide cleavage); type: biochemical; settings: succinyl (Ala)3-p-nitroanilide substrate, 0.2M Tris HCl pH 8.0, 37° C., 1 hour; read-out: IC50 (concentration required to give 50% inhibition)
T1 sequence (P08246 30-267): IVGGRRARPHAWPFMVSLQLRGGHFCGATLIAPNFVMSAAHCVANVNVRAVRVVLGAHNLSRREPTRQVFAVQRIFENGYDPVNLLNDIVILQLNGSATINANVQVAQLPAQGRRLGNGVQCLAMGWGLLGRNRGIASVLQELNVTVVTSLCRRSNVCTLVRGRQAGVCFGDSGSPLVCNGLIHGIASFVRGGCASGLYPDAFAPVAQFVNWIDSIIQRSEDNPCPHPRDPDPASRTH
Procedure: ASSAY OF THE INHIBITION OF HUMAN GRANULOCYTE ELASTASE TEST METHOD
This assay is based on the method of J. Bieth, B. Spiess and C. G. Wermuth, Biochem. 11, (1974), 350.
Succinyl (Ala)3 -p-nitroanilide (20 μl of a 125 mM solution in N-methylpyrrolidone) was diluted in buffer (3 ml, 0.2M Tris HCl, pH 8.0) and warmed to 37° C. Human granulocyte elastase (4 μg in 20 μl of buffer) was added to initiate the reaction, which was terminated after 1 hour at 37° C. by the addition of glacial acetic acid (100 μl). The p-nitroaniline released was determined by measuring the extinction of the solution at 410 nm by means of a spectrophotometer. The compounds of the present invention, in 50 μl of methanol, were added to the buffered substrate prior to the addition of the human granulocyte elastase and the substrate cleavage rate was compared with solvent controls. The concentration of compound of the present invention required to give 50% inhibition was determined.

male mice = test: Maximum tolerated dose test (no gross behavioural effects); type: in vivo; settings: observed 6 hours and 24 hours after administration
Procedure: MAXIMUM TOLERATED DOSE TEST TEST METHOD
This test determines the maximum acute dose of a compound of this invention which causes no gross behavioural effects.
Groups of 3 male mice are administered 400 mg/kg and 100 mg/kg of a compound of this invention subcutaneously, intravenously or intraperitoneally. The mice are observed periodically during the 6 hours after the administration and 24 hours after the administration. Evidence of stimulation, sedation, loss of righting reflex, convulsions, tremor, death and other gross effects are noted. If effects are observed, the compound is tested at lower dosages in order to determine the no gross effect level. The results are expressed as the maximum dose administered in mg/kg which causes no gross behavioural effects.

| SMILES | IC50 [1] [µM] | dosage at which no behavioural effects were observed (male mice; intraperitoneally) [mg/kg] | dosage at which no behavioural effects were observed (male mice; intravenously) [mg/kg] | dosage at which no behavioural effects were observed (male mice; subcutaneously) [mg/kg] |
| --- | --- | --- | --- | --- |
| CC(C)CNC(=O)[C@@H]1CCCN1C(=O)[C@H](CCCCNC(=O)CCC(=O)O)NCCC12CC3CC(CC(C3)C1)C2 [N^α -(1-adamantylethyl)-N^ε -succinyl-L-lysyl-L-proline isobutylamide] | 4.5 | 50 | – | – |
| CC(C)[C@@H](C=O)NC(=O)[C@@H]1CCCN1C(=O)[C@H](CCCCNC(=O)c1ccccc1C(=O)O)NS(=O)(=O)C12CC3CC(CC(C3)C1)C2 [N^α -(1-adamantylsulphonyl)-N^ε -(2-carboxybenzoyl)-L-lysyl-L-prolylvalinal] | 0.09 | – | – | – |
| CC(C)[C@@H](C=O)NC(=O)[C@H](C)NC(=O)[C@H](CCCCNC(=O)c1ccc(C(=O)O)cc1)NS(=O)(=O)C12CC3CC(CC(C3)C1)C2 [N^α -(1-adamantylsulphonyl)-N^ε -(4-carboxybenzoyl)-L-lysyl-L-alanyl-L-valinal] | 0.05 | 100 | 100 | 400 |
| CC(C)[C@@H](C=O)NC(=O)[C@@H]1CCCN1C(=O)[C@H](CCCCNC(=O)c1ccc(C(=O)O)cc1)NS(=O)(=O)C12CC3CC(CC(C3)C1)C2 [N^α -(1-adamantylsulphonyl)-N^ε -(4-carboxybenzoyl)-L-lysyl-L-prolyl-L-valinal] | 0.06 | 100 | 100 | 400 |
| CC(C)[C@@H](C=O)NC(=O)[C@@H]1CCCN1C(=O)[C@H](CCCCNC(=O)CCCCC(=O)O)NS(=O)(=O)C12CC3CC(CC(C3)C1)C2 [N^α -(1-adamantylsulphonyl)-N^ε -adipoyl-L-lysyl-L-prolylvalinal] | 0.08 | – | – | – |
| CC(C)[C@@H](C=O)NC(=O)[C@H](C)NC(=O)[C@H](CCCCNC(=O)CCC(=O)O)NS(=O)(=O)C12CC3CC(CC(C3)C1)C2 [N^α -(1-adamantylsulphonyl)-N^ε -succinyl-L-lysyl-L-alanylvalinal] | 0.12 | – | – | – |
| CC(C)[C@@H](C=O)NC(=O)[C@@H]1CCCN1C(=O)[C@H](CCCCNC(=O)CCC(=O)O)NS(=O)(=O)C12CC3CC(CC(C3)C1)C2 [N^α -(1-adamantylsulphonyl)-N^ε -succinyl-L-lysyl-L-prolyl-L-valinal] | 0.08 | – | 100 | 400 |
| CC(C)CNC(=O)[C@@H]1CCCN1C(=O)[C@H](CCCCNC(=O)CC[C@H](N)C(=O)O)NCCC1CCC2CC1C2(C)C (some centres unmarked) [dihydrobromide] | 16 | – | – | – |
